Test results from ChEMBL document CHEMBL3259812, “Structural modifications of 4-aryl-4-oxo-2-aminylbutanamides and their acetyl- and butyrylcholinesterase inhibitory activity. Investigation of AChE-ligand interactions by docking calculations and molecular dynamics simulations” (Eur J Med Chem, 2014).
Active and inactive are the calls of the source. The calls are words filed in the database; no cut-off is given here.

Tests used:
Cholinesterase [1] = target: T1, Cholinesterase (Equus caballus, UniProt P81908)
Description: (§1) Inhibition of horse serum BChE using butyrylthiocholine iodide as substrate preincubated for 35 mins followed by enzyme addition measured after 3 mins by Ellman's method

[2] = target: Cholinesterase (Equus caballus) (UniProt P81908); experiment: Inhibition of horse serum BChE using butyrylthiocholine iodide as substrate assessed as residual activity at 20 uM preincubated for 35 mins followed by enzyme addition measured after 3 mins by Ellman's method relative to control
[3] = Mixed type inhibition of electric eel acetylcholinesterase type VI-S using acetylthiocholine iodide as substrate assessed as enzyme-inhibitor complex by Lineweaver-Burk plot analysis; parameters: species or system Electrophorus electricus
Electrophorus electricus [4] = experiment: Reversible inhibition of electric eel acetylcholinesterase type VI-S using acetylthiocholine iodide as substrate by Lineweaver-Burk plot analysis
Cholinesterase [5] = target: T1, Cholinesterase; remark: listed apart in the source
Description: as §1

Electrophorus electricus [6] = experiment: Inhibition of electric eel acetylcholinesterase type VI-S using acetylthiocholine iodide as substrate assessed as residual activity at 20 uM preincubated for 35 mins followed by enzyme addition measured after 3 mins by Ellman's method relative to control
[7] = Stability of the compound; assay type: physicochemical
[8] = target: Cholinesterase (Equus caballus) (UniProt P81908); experiment: Inhibition of horse serum BChE using butyrylthiocholine iodide as substrate assessed as residual activity at 30 uM preincubated for 35 mins followed by enzyme addition measured after 3 mins by Ellman's method relative to control
[9] = target: Cholinesterase (Equus caballus) (UniProt P81908); experiment: Inhibition of horse serum BChE using butyrylthiocholine iodide as substrate assessed as residual activity at 15 uM preincubated for 35 mins followed by enzyme addition measured after 3 mins by Ellman's method relative to control
Electrophorus electricus [10] = experiment: Inhibition of electric eel acetylcholinesterase type VI-S using acetylthiocholine iodide as substrate assessed as residual activity at 25 uM preincubated for 35 mins followed by enzyme addition measured after 3 mins by Ellman's method relative to control
[11] = target: Cholinesterase (Equus caballus) (UniProt P81908); experiment: Inhibition of horse serum BChE using butyrylthiocholine iodide as substrate assessed as residual activity at 40 uM preincubated for 35 mins followed by enzyme addition measured after 3 mins by Ellman's method relative to control
[12] = target: Cholinesterase (Equus caballus) (UniProt P81908); experiment: Inhibition of horse serum BChE using butyrylthiocholine iodide as substrate assessed as residual activity at 10 uM preincubated for 35 mins followed by enzyme addition measured after 3 mins by Ellman's method relative to control
Electrophorus electricus [13] = experiment: Inhibition of electric eel acetylcholinesterase type VI-S using acetylthiocholine iodide as substrate assessed as residual activity at 15 uM preincubated for 35 mins followed by enzyme addition measured after 3 mins by Ellman's method relative to control
Electrophorus electricus [14] = experiment: Inhibition of electric eel acetylcholinesterase type VI-S using acetylthiocholine iodide as substrate assessed as residual activity at […] preincubated for 35 mins followed by enzyme addition measured after 3 mins by Ellman's method relative to control
Electrophorus electricus [15] = experiment: Inhibition of electric eel acetylcholinesterase type VI-S using acetylthiocholine iodide as substrate assessed as residual activity at 8.5 uM preincubated for 35 mins followed by enzyme addition measured after 3 mins by Ellman's method relative to control

Cholinesterase (Equus caballus), sequence (P81908 whole entry): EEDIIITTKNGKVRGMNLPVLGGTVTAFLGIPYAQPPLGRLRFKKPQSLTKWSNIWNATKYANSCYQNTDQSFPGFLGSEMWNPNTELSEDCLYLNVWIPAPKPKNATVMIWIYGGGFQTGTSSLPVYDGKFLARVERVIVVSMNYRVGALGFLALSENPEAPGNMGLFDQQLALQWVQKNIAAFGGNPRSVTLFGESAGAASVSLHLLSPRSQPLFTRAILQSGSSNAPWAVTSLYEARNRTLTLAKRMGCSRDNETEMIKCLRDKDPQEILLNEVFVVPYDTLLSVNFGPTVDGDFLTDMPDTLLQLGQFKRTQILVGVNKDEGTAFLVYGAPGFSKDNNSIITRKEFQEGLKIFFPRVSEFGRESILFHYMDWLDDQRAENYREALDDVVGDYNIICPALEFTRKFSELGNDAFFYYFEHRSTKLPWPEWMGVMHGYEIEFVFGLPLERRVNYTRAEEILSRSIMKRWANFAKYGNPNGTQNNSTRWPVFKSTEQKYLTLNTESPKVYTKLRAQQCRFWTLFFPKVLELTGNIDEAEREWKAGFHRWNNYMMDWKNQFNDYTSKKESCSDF
T1 sequence (P81908 whole entry): as above

COc1ccc(NC(=O)C(CC(=O)c2ccc(C(C)C)cc2C(C)C)N2CCCCC2)cc1OC (racemic)
IC50 (Cholinesterase [1]): > 7.5 µM

CN1CCN(C(CC(=O)c2cccc3c2CCCC3)C(=O)NC2CCCCC2)CC1 (racemic)
Activity [2]: 56.7%

CC(C)c1ccc(NC(=O)C(CC(=O)c2ccc(C(C)C)cc2C(C)C)N2CCCCC2)cc1 (racemic)
Ki [3]: 0.52 µM | inhibition (Electrophorus electricus [4]): Active | IC50 (Cholinesterase [5]): ND(Insoluble)

COc1cc(NC(=O)C(CC(=O)c2ccc(C(C)C)cc2)N2CCN(C)CC2)cc(OC)c1 (racemic)
Activity (Electrophorus electricus [6]): 76.7% | IC50 (Cholinesterase [1]): > 20 µM

COc1cc(NC(=O)C(CC(=O)c2ccc(C(C)C)cc2)N2CCCCC2)cc(OC)c1 (racemic)
Stability [7]: Unstable

CC(C)c1ccc(C(=O)CC(C(=O)Nc2ccccc2)n2ccnc2)cc1 (centres undefined)
Activity [8]: 90%

CC(C)c1ccc(C(=O)CC(C(=O)NC2CCCCC2)n2ccnc2)c(C(C)C)c1 (racemic)
Activity [2]: 65.8%

CC(C)c1ccc2c(c1C(=O)CC(C(=O)NC1CCCCC1)N1CCOCC1)CCCC2 (racemic)
Activity [2]: 75.2%

CC(C)c1ccc2c(c1C(=O)CC(C(=O)NC1CCCCC1)N1CCCCC1)CCCC2 (racemic)
Activity [2]: 61.5%

CC(C)c1ccc(C(=O)CC(C(=O)Nc2ccccc2)N2CCC(Cc3ccccc3)CC2)cc1 (racemic)
IC50 (Cholinesterase [1]): > 20 µM

CC(C)c1ccc2c(c1C(=O)CC(C(=O)NC1CCCCC1)N1CCN(C)CC1)CCCC2 (racemic)
Activity [2]: 39.1%

CC(C)c1ccc(NC(=O)C(CC(=O)c2ccc(C(C)C)cc2)N2CCCCC2)cc1 (racemic)
Stability [7]: Unstable

CC(C)c1ccc(NC(=O)C(CC(=O)c2ccc(C(C)C)cc2)N2CCN(C)CC2)cc1 (racemic)
Activity [9]: 72.4%

CC(C)c1ccc(C(=O)CC(C(=O)NC2CCCCC2)N2CCN(C)CC2)cc1 (racemic)
Activity (Electrophorus electricus [10]): 86.2% | Activity [2]: 66.2%

O=C(CC(C(=O)Nc1ccccc1)n1ccnc1)c1cccc2c1CCCC2 (centres undefined)
Activity [11]: 83%

CC(C)c1ccc(C(=O)CC(C(=O)NC2CCCCC2)N2CCCCC2)c(C(C)C)c1 (racemic)
Activity [2]: 72.7%

CC(C)c1ccc(C(=O)CC(C(=O)NC2CCCCC2)N2CCOCC2)cc1 (racemic)
Activity (Electrophorus electricus [10]): 85.1% | Activity [12]: 46.8%

CC(C)c1ccc(C(=O)CC(C(=O)NC2CCCCC2)N2CCCCC2)cc1 (racemic)
Activity (Electrophorus electricus [13]): 63.1% | Activity [2]: 65%

CC(C)c1ccc(NC(=O)C(CC(=O)c2cccc3c2CCCC3)N2CCOCC2)cc1 (racemic)
IC50 (Cholinesterase [1]): > 15 µM

COc1ccc(NC(=O)C(CC(=O)c2ccc(C(C)C)cc2C(C)C)N2CCOCC2)cc1OC (racemic)
Activity [12]: 62.4%

CC(C)c1ccc(NC(=O)C(CC(=O)c2cccc3c2CCCC3)N2CCCCC2)cc1 (racemic)
IC50 (Cholinesterase [5]): ND(Insoluble)

O=C(CC(C(=O)Nc1ccccc1)N1CCOCC1)c1cccc2c1CCCC2 (centres undefined)
Activity [11]: 87%

CC(C)c1ccc(C(=O)CC(C(=O)NC2CCCCC2)N2CCN(C)CC2)c(C(C)C)c1 (racemic)
IC50 (Cholinesterase [1]): 2.25 µM

COc1cc(NC(=O)C(CC(=O)c2ccc(C(C)C)cc2)N2CCOCC2)cc(OC)c1 (racemic)
IC50 (Cholinesterase [1]): > 20 µM

CC(C)c1ccc(C(=O)CC(C(=O)Nc2ccccc2)N2CCOCC2)cc1 (centres undefined)
Activity [11]: 72.8%

COc1cc(NC(=O)C(CC(=O)c2ccc(C(C)C)cc2)N2CCN(CCN(C)C)CC2)cc(OC)c1 (racemic)
IC50 (Cholinesterase [1]): > 20 µM

CC(C)c1ccc(NC(=O)C(CC(=O)c2ccc(C(C)C)cc2C(C)C)N2CCN(C)CC2)cc1 (racemic)
Activity (Electrophorus electricus [14]): 43.6% | IC50 (Cholinesterase [1]): 0.74 µM

O=C(CC(C(=O)Nc1ccccc1)N1CCCCC1)c1cccc2c1CCCC2 (centres undefined)
Activity [9]: 78.5%

CC(C)c1ccc2c(c1C(=O)CC(C(=O)NC1CCCCC1)n1ccnc1)CCCC2 (racemic)
Activity [2]: 52.2%

CC(C)c1ccc(C(=O)CC(C(=O)NC2CCCCC2)n2ccnc2)cc1 (racemic)
Activity (Electrophorus electricus [13]): 65.3% | Activity [2]: 76%

CC(C)c1ccc(NC(=O)C(CC(=O)c2ccc(C(C)C)cc2)n2ccnc2)cc1 (racemic)
IC50 (Cholinesterase [1]): > 20 µM

CC(C)c1ccc(C(=O)CC(C(=O)Nc2ccccc2)N2CCCCC2)c(C(C)C)c1 (centres undefined)
Activity [9]: 60.1%

CC(C)c1ccc(NC(=O)C(CC(=O)c2ccc(C(C)C)cc2C(C)C)n2ccnc2)cc1 (racemic)
IC50 (Cholinesterase [1]): > 20 µM

O=C(CC(C(=O)NC1CCCCC1)N1CCOCC1)c1cccc2c1CCCC2 (racemic)
IC50 (Cholinesterase [5]): ND(Insoluble)

COc1ccc(NC(=O)C(CC(=O)c2ccc(C(C)C)cc2C(C)C)n2ccnc2)cc1OC (racemic)
Activity [2]: 78.4%

CC(C)c1ccc(NC(=O)C(CC(=O)c2ccc(C(C)C)cc2)N2CCOCC2)cc1 (racemic)
IC50 (Cholinesterase [1]): > 20 µM

CC(C)c1ccc(C(=O)CC(C(=O)NC2CCCCC2)N2CCOCC2)c(C(C)C)c1 (centres undefined)
IC50 (Cholinesterase [1]): > 20 µM

COc1cc(NC(=O)C(CC(=O)c2ccc(C(C)C)cc2)n2ccnc2)cc(OC)c1 (racemic)
IC50 (Cholinesterase [1]): > 20 µM

CC(C)c1ccc(NC(=O)C(CC(=O)c2ccc(C(C)C)cc2C(C)C)N2CCOCC2)cc1 (racemic)
Activity (Electrophorus electricus [14]): 44.4% | Activity [12]: 73.6%

CC(C)c1ccc(NC(=O)C(CC(=O)c2cccc3c2CCCC3)n2ccnc2)cc1 (racemic)
IC50 (Cholinesterase [1]): > 20 µM

COc1ccc(NC(=O)C(CC(=O)c2ccc(C(C)C)cc2C(C)C)N2CCN(C)CC2)cc1OC (racemic)
IC50 (Cholinesterase [1]): 5.26 µM

CC(C)c1ccc(NC(=O)C(CC(=O)c2cccc3c2CCCC3)N2CCN(C)CC2)cc1 (racemic)
Activity (Electrophorus electricus [15]): 86.5% | IC50 (Cholinesterase [1]): 10.8 µM

O=C(CC(C(=O)NC1CCCCC1)n1ccnc1)c1cccc2c1CCCC2 (racemic)
IC50 (Cholinesterase [1]): > 20 µM

O=C(CC(C(=O)NC1CCCCC1)N1CCCCC1)c1cccc2c1CCCC2 (racemic)
IC50 (Cholinesterase [1]): > 20 µM
